pIC50: −log10 of the molar value.
Tests used:
[1] = target: T1, calpain-1 from human erythrocytes (Homo sapiens, UniProt P07384); assay: Calpain Inhibitory Activity Measurement 2 (HMRG fluorescent probe, various inhibitor concentrations, IC50); assay type: biochemical; conditions: fluorescent probe 5 μM; calpain-1 6.48 μg/mL; 37° C., 30 minutes; Tris buffer pH 7.4
T1 construct: calpain-1 from human erythrocytes; purchased Merck Millipore 208713; host or cells: human erythrocytes
T1 sequence (P07384 1-714): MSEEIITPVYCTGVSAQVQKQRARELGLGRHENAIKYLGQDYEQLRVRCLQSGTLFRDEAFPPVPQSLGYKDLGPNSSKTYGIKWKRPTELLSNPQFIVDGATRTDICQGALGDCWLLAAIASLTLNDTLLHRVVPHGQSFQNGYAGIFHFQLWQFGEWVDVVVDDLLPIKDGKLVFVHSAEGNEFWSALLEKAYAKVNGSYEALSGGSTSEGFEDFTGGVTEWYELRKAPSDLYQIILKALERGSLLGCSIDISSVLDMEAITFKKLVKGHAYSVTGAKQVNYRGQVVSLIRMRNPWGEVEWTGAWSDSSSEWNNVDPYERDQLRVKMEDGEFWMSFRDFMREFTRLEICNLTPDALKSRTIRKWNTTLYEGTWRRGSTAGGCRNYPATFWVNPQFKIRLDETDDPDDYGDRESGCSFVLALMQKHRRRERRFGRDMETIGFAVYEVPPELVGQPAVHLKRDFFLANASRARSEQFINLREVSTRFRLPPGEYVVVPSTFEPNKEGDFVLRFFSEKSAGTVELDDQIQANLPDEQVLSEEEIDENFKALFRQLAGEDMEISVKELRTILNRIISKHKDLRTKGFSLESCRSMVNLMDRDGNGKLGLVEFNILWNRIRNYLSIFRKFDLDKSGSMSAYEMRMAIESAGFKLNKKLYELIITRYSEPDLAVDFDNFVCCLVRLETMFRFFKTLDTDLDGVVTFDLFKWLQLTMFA
T1 sequence (P04632 1-268 partner): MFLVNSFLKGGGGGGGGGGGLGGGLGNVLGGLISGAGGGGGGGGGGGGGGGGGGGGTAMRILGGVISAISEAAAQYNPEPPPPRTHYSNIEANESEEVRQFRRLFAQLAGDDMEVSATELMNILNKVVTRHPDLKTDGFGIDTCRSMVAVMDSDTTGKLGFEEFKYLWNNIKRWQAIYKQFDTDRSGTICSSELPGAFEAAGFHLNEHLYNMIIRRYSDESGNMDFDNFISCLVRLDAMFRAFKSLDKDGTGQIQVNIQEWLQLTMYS
Method: Calpain-1 (calpain-1 from human erythrocytes, Cat. No. 208713, Merck Millipore) and a DMSO solution of a HMRG fluorescent probe for detecting calpain activity were added to each of 50 mM Tris buffers (pH: 7.4, 5 mM CaCl2), 2 mM DTE, 2 mM EGTA) containing various concentrations of SNJ-1945 or Compound 13 to perform fluorescence assays (the final concentration of the fluorescent probe was 5 μM, and the final concentration of calpain-1 was 6.48 μg/mL). […] The results are shown in FIG. 2 (concentrations shown in the figure each represent the final concentration of SNJ-1945 or Compound 13 in each assay). The following compound was used as the probe for detecting calpain activity.
An IC50 was determined on the basis of a graph produced with data analysis software “KaleidaGraph”. As a result, the IC50 of Compound 13 was 0.010 μM, and the IC50 of SNJ-1945 was 0.040 μM.

[2] = target: T2, calpain (calpain-1) in the kit (Homo sapiens, UniProt P07384); assay: Calpain Inhibitory Activity Measurement 1 (SensorLyte 520 Calpain Activity Assay Kit, 5-FAM/QXL 520 substrate); assay type: biochemical; conditions: inhibitor 0.062 μM; 5-FAM/QXL 520 5.0 μM; 37° C., 25 minutes; compared with SNJ-1945
T2 construct: purchased AnaSpec, Inc. AS-72149
T2 sequence (P07384 1-714): T1 sequence (P07384 1-714)
T2 sequence (P04632 1-268 partner): T1 sequence (P04632 1-268 partner)
Method: Calpain inhibitory activity was measured with SensorLyte™ 520 Calpain Activity Asay Kit (AnaSpec, Inc., AS-72149) in conformity with a method described in its assay protocol. SNJ-1945 (Medkoo Biosciences, Inc., Cat #564979), Compound 13, Compound 14, Compound 18, or Compound 19 serving as a calpain inhibitor and a calpain (calpain-1) in the kit were mixed with each other in Assay Buffer, and the mixture was incubated at 37° C. for 3 minutes. 5-FAM/QXL™ 520 serving as a calpain enzyme substrate was added to the incubated product to perform an enzyme reaction by the calpain at 37° C. for 25 minutes (the final concentration of each inhibitor was 0.062 μM, and the final concentration of 5-FAM/QXL™ 520 was 5.0 μM). In the enzyme reaction, the enzyme substrate is cleaved by the calpain to emit fluorescence. The emission fluorescence intensity of the substrate was detected with a plate reader (Infinite™ 200 PRO, TECAN) (at an excitation wavelength of 490 nm and a fluorescence wavelength of 520 nm). SNJ-1945 is a known calpain inhibitor, and has the following structure.

Row | SMILES | pIC50 [1] | enzyme inhibitory activity on the calpain (fluorescence increase amount, FIG. 1) [2]
1 | COCC(=O)N[C@@H](CC(C)C)C(=O)N[C@@H](Cc1ccccc1)C(=O)C(=O)NC1CC1 [Compound 13] | 8.00 | stronger than that of SNJ-1945
2 | COC(C)(C)C(=O)N[C@@H](CC(C)C)C(=O)N[C@@H](Cc1ccccc1)C(=O)C(=O)NC1CC1 [Compound 14] |  | stronger than that of SNJ-1945
3 | C#CCOCC(=O)N[C@@H](CC(C)C)C(=O)N[C@@H](Cc1ccccc1)C(=O)C(=O)NC1CC1 [Compound 18] |  | stronger than that of SNJ-1945
4 | COCCC(=O)N[C@@H](CC(C)C)C(=O)N[C@@H](Cc1ccccc1)C(=O)C(=O)NC1CC1 [Compound 19, reference compound] |  | comparable to that of SNJ-1945
5 | COCCOCCOC(=O)N[C@@H](CC(C)C)C(=O)N[C@@H](Cc1ccccc1)C(=O)C(=O)NC1CC1 [SNJ-1945, reference compound] | 7.40 | inhibited
